SMILES strings stand for the structures. Some results are limits rather than exact numbers.

The experiment has as its system green peach aphid (Myzus persicae). Briefly: Myzus test (MYZUPE), sprayed aubergine plants. It counts as in vivo. Particulars: application rate of 500 ppm, spray on aubergine plants, read-out: effect in % (aphids killed). Here is the method:
Solvent: 3 parts by weight of dimethylformamide Emulsifier: 1 part by weight of polyoxyethylenealkyl phenyl ether
An appropriate preparation of active ingredient is prepared by mixing 1 part by weight of active ingredient with the stated amount of solvent and emulsifier and diluting the concentrate with water to the desired concentration.
Aubergine plants (Solanum melongena) infested by all stages of the green peach aphid (Myzus persicae) are sprayed with a preparation of active ingredient at the desired concentration.
After the desired time, the effect in % is determined; here, 100% means that all of the aphids have been killed. Conversely, 0% means that no aphids have been killed.
Regarding `CCN(C(=O)c1ccc(Sc2nccc(C)n2)nc1)c1cccnc1` [I-197], the pest or weed control at 500 ppm was at least 80%.

Take `COc1nc(OC)nc(Sc2ccc(C(=O)N(C)c3cccnc3)cn2)n1` [I-200]: the pest or weed control at 500 ppm is at least 80%.

Consider `O=C(Nc1cccnc1)c1ccc(N2CCCCC2)nc1` [I-205], for which the pest or weed control at 500 ppm is at least 80%.

In the case of `COc1cc(OC)nc(COc2cccc(C(=O)N(C)c3cccnc3)c2)n1` [I-207], the pest or weed control at 500 ppm is at least 80%.

As for `CCN(C(=O)c1cccc(OCc2nc(OC)cc(OC)n2)c1)c1cccnc1` [I-208], the pest or weed control at 500 ppm was at least 80%.

In the case of `CCCNc1ccc(C(=O)Nc2cccnc2)cn1` [I-209], the pest or weed control at 500 ppm was at least 80%.

`O=C(Nc1cccnc1)c1ccc(NCC2CC2)nc1` [I-210]: the pest or weed control at 500 ppm is at least 80%.

`O=C(Nc1cccnc1)c1ccc(N2CCOCC2)nc1` [I-212]: the pest or weed control at 500 ppm was at least 80%.

Consider `CS(=O)(=O)c1ccc(Oc2ccc(C(=O)Nc3cccnc3)cn2)cc1` [I-217], for which the pest or weed control at 500 ppm was at least 80%.

Take `Cc1nc(Sc2ccc(C(=O)Nc3cccnc3)cn2)nc(C)c1C` [I-218]: the pest or weed control at 500 ppm was at least 80%.

For the compound `CCN(C(=O)c1ccc(Oc2ccc(-n3cncn3)cc2)nc1)c1cccnc1` [I-219], the pest or weed control at 500 ppm was at least 80%.

As for `CCN(C(=O)c1ccc(Sc2nc(C)c(C)c(C)n2)nc1)c1cccnc1` [I-220], the pest or weed control at 500 ppm was at least 80%.

As to `CCN(C(=O)c1ccc(Oc2cccc(C(F)(F)F)c2)nc1)c1cccnc1` [I-221], the pest or weed control at 500 ppm was at least 80%.

`Cc1cc(C)nc(Sc2ccc(C(=O)N(C)c3ccnnc3)cn2)n1` [I-222]: the pest or weed control at 500 ppm is at least 80%.

Take `O=C(Nc1cccnc1)c1ccc(NCCN2CCOCC2)nc1` [I-223]: the pest or weed control at 500 ppm is at least 80%.

As for `C=CCN(C(=O)c1ccc(Sc2nc(C)cc(C)n2)nc1)c1cccnc1` [I-224], the pest or weed control at 500 ppm was at least 80%.

Regarding `C#CCN(C(=O)c1ccc(Sc2nc(C)cc(C)n2)nc1)c1cccnc1` [I-225], the pest or weed control at 500 ppm was at least 80%.

In the case of `CC#CCN(C(=O)c1ccc(Sc2nc(C)cc(C)n2)nc1)c1cccnc1` [I-226], the pest or weed control at 500 ppm is at least 80%.

For the compound `Cc1cc(C)nc(Sc2ccc(C(=O)N(Cc3ccccc3)c3cccnc3)cn2)n1` [I-227], the pest or weed control at 500 ppm is at least 80%.

For `Cc1cc(C)nc(Sc2ccc(C(=O)N(Cc3ccc(C#N)cc3)c3cccnc3)cn2)n1` [I-228], the pest or weed control at 500 ppm was at least 80%.

Consider `Cc1cc(C)nc(Sc2ccc(C(=O)N(Cc3ccc([N+](=O)[O-])cc3)c3cccnc3)cn2)n1` [I-229], for which the pest or weed control at 500 ppm was at least 80%.

For the compound `Cc1cc(C)nc(Sc2ccc(C(=O)N(Cc3ccc(OC(F)(F)F)cc3)c3cccnc3)cn2)n1` [I-230], the pest or weed control at 500 ppm was at least 80%.

In the case of `C=CCN(C(=O)c1ccc(Cl)nc1)c1cccnc1` [I-231], the pest or weed control at 500 ppm is at least 80%.

`C#CCN(C(=O)c1ccc(Cl)nc1)c1cccnc1` [I-232]: the pest or weed control at 500 ppm was at least 80%.

For the compound `CN(C(=O)c1ccc(/C=N/C2CCCC2)cc1)c1cccnc1` [I-233], the pest or weed control at 500 ppm was at least 80%.

Take `CC(C)O/N=C/c1ccc(C(=O)N(C)c2cccnc2)cc1` [I-234]: the pest or weed control at 500 ppm was at least 80%.

For the compound `CCN(C(=O)c1ccc(/C=N/OC(C)C)cc1)c1cccnc1` [I-236], the pest or weed control at 500 ppm is at least 80%.

As to `CC(=O)N(Cc1ccc(C(=O)N(C)c2cccnc2)cc1)CC(C)C` [I-238], the pest or weed control at 500 ppm was at least 80%.

For `CCN(C(=O)c1ccc(C(=O)OC)cc1)c1cccnc1` [I-241], the pest or weed control at 500 ppm was at least 80%.

`CN(CCC#N)C(=O)c1ccc(C(=O)Nc2cccnc2)cc1` [I-244]: the pest or weed control at 500 ppm is at least 80%.

Turning to `CN(C(=O)c1ccc(N(C)C(=O)C(F)(F)Cl)cc1)c1cccnc1` [I-245], the pest or weed control at 500 ppm is at least 80%.

Consider `CCN(C(=O)c1ccc(N(C)C(=O)C(F)(F)Cl)cc1)c1cccnc1` [I-246], for which the pest or weed control at 500 ppm is at least 80%.

For the origin of these results see patent publication US20100305124A1, “Acylated Aminopyridine and Aminopyridazine Insecticides” (BAYER CROPSCIENCE AG, priority 2009, published 2010).
